Measured values from patent US12527766B2, “Methods of treating acute coronary syndrome using 3,3′-diindolylmethane” (Boulder BioScience LLC, priority 2020, dated 2026).
Counter-ions that a name gives are not always drawn.

How the values were obtained:
[1] = cited from earlier work; for Log P: table of second active agents; for Log P of Second Active Agent: co-formulation table
[2] = following oral administration; cited from earlier work
human neutrophils [3] = experiment: Sytox Orange extracellular DNA release (NET) assay; assay type: cell-based
Source text: (§1) Neutrophil isolation: Neutrophils were isolated from the peripheral blood of healthy donors, under a protocol approved by an institutional ethics committee. All subjects gave written informed consent in accordance with the Declaration of Helsinki. Briefly, whole blood was collected using an anticoagulant (sodium citrate), and isolated as previously described using a Percoll gradient separation of neutrophils from other leukocytes (Modulation of multiple neutrophil functions by preparative methods or trace concentrations of bacterial lipopolysaccharide. Haslett C, et al. Am J Pathol. 1985 April; 119(1): 101-10). Neutrophils were suspended in RPMI, 2% heat-inactivated human plasma, and 10 mM HEPES, pH7.5 (complete RPMI) to a neutrophil specific concentration of 2.2×10^6 neutrophils/ml.
First Neutrophil Extracellular Trap (NET) indicating assay: A Sytox Orange extracellular DNA release assay was utilized. For the experiments using DIM from self-emulsifying SMEDDS BR-9001 (i.e., Example 1), purified human neutrophils (2×10^5 per sample) in complete RPMI were allowed to settle in 24-well plates in the presence of DIM from self-emulsifying DIM formulation SMEDDS—BR-9001 (12% DIM) providing experimental DIM concentrations of 1, 3, 10, and 30 μM. Control wells received SMEDDS excipient vehicle mixture alone (diluted to provide excipient mixture concentrations equivalent to excipients present in the 3 and 30 μM DIM experimental wells). Neutrophils (2×10^5 per well) were plated in a black-walled 96-well plate and allowed to settle in the presence of DIM from BR-9001 or excipient vehicle control for 30 min. After 30 minutes neutrophils in wells were stimulated with recombinant fusion protein (F Protein (1 μg/ml, Sino Biologicals) or phenolextracted lipopolysaccharide (LPS; 10 μg/ml; List Biologicals). and 5 μM Sytox Orange (Thermo Fisher) was added and gently mixed. The plate was placed in a prewarmed (37° C.) fluorescence plate reader (BioTek FLX-800) and fluorescence read at excitation/emission of 540/600 every 10 minutes over 4 hours. Following this, 1% saponin was added to lyse neutrophils to provide 100% DNA release for experiments presented in FIGS. 1A and 1B. This allowed results to be presented as proportion of total DNA in these experiments. Otherwise results are reported as relative fluorescent units (FIGS. 3A and 3B). The kinetics or 4-hour results were reported as described (Sec FIGS. 1A and 1B and FIG. 3A).
A second set of experiments were performed using crystalline DIM solubilized in DMSO prior to addition to culture wells. […] The plate was placed in a prewarmed (37° C.) fluorescence plate reader and fluorescence read as above every 10 minutes over 4 hours. […]

[4] = test system: carotid artery thromboses; experiment: FeCl3 carotid artery thrombosis in mice, H&E fibrin content; assay type: in vivo, mice (C57BL6/J); conditions: DIM treated animals (oral and IV groups)
Procedure: Animals: All mice were of C57BL6/J background. Specific pathogen-free mice were obtained from Envigo, USA. All mice used for experiments were between 11 and 14 weeks old. Each experimental group was weight and sex-matched so that experiments were carried out on male and female mice with similar weight and in equal sex distribution between groups. All procedures were performed on anaesthetized animals using a uniform technique of inhaled Isoflurane combined with supplemental parenteral agents. Animals were sacrificed under deep anesthesia. All animal experiments were carried out according to the guidelines from the Guide for Care and Use of Laboratory Animals and The Public Health Service (PHS) Policy on Humane Care and Use of Laboratory Animals. All experimental procedures performed on animals met the requirements of the Guide for the protection of animals used for scientific purposes. Induction of arterial thrombosis after Ferric Chloride exposure: For thrombus induction in the distal carotid artery in vivo, local application of FeCl3 was used following an established method (Wang et al, 2005, supra). In brief, mice were anesthetized using 2-3% inhaled isoflurane, shifting to lower dose maintenance isoflurane and supplemented with a fixed combination of intra-peritoneal buprenorphine, midazolam and dexmedetomidine. […]

human neutrophils [5] = experiment: Fluorescent imaging of extracellular DNA (Sytox Orange microscopy); assay type: cell-based
Source text: as §1
Fluorescent imaging of extracellular DNA for photo-micrograph data: Neutrophils (5×10^5 per well) were spotted on a glass microscope chamber slide (Ibidi) and cells were stimulated for 4 hours as indicated above with F Protein or LPS, at 37° C. in a humidified chamber, and stained with 0.2 μM Sytox Orange for the final 10 minutes. The slides were fixed in 2% formaldehyde (Sigma) for 10 min at room temperature and imaged.

[6] = in vivo and in vitro; cited from earlier work

## O=c1c2ccccc2[se]n1-c1ccccc1 [Ebselen]
[1]
  Log P: Log P - 2.65

## CCCSc1nc(N[C@@H]2C[C@H]2c2ccc(F)c(F)c2)c2nnn([C@@H]3C[C@H](OCCO)[C@@H](O)[C@H]3O)c2n1 [Ticagrelor]
[1]
  Log P of Second Active Agent: 1.90
  Log P: Log P - 1.90

## c1ccc2c(Cc3c[nH]c4ccccc34)c[nH]c2c1 [DIM, 3,3′-diindolylmethane]
[2]
  tissue distribution: concentrates in brain tissue
Human neutrophils [3]; F protein and LPS stimulated neutrophils
  delay in DNA release versus absence of DIM: about 1 hours
Human neutrophils [3]; Homo sapiens, Neutrophil, free DIM (crystalline, in DMSO), read-out: estimated IC50, inhibition of DNA release
  IC50: 3 to 30 µM
Human neutrophils [3]; free DIM in DMSO 1, 3, 10, 30 μM, F Protein 1 μg/ml
  effect on DNA release (Sytox Orange): dose-dependent inhibitory effect
Human neutrophils [3]; non-stimulated neutrophils
  spontaneous DNA release: did not inhibit
[4]
  thrombus composition (H&E) versus Vehicle Control: less compact thrombi, primarily composed of red cells (RBCs), with a minimum of fibrin and lower presence of leukocytes
Human neutrophils [5]; 3 μM to 30 μM DIM
  extracellular DNA positive cells (microscopy): dose response
Human neutrophils [5]; API (free) DIM, F Protein and LPS, 4 h
  visualization of extracellular DNA (microscopy): inhibited visualization of extracellular DNA

## OCc1c[nH]c2ccccc12 [indole-3-carbinol, 1H-indol-3-ylmethanol]
[6]
  conversion products: converts to DIM and LTR

## CCCCCCCCc1ccc(CCC(N)(CO)CO)cc1 [Fingolimod]
[1]
  Log P of Second Active Agent: 5.25
  Log P: Log P - 5.25

## Anakinra: recombinant and slightly modified version of the human interleukin 1 receptor antagonist protein
[1]
  Log P: Log P - 2.69

## COC(=O)/C=C/C(=O)OC [Dimethyl Fumarate, Dimethyl fumarate]
[1]
  Log P: Log P - 0.62
